Results taken from patent US7354941B2, “Nicotinamide benzofused-heterocyclyl derivatives useful as selective inhibitors of PDE4 isozymes” (Pfizer Products Inc., priority 2000, dated 2008).

Tests used:
PDE4 = conditions: cited from earlier work
guinea-pig trachea = conditions: cited from earlier work
allergic rhinitis = conditions: in vivo; cited from earlier work
[1] = in vivo; cited from earlier work
atopic dermatitis = conditions: topical, cited from earlier work
[2] = test system: high-affinity rolipram binding site (Sr); conditions: cited from earlier work
rhinorrhea = conditions: antigen-challenged pig; cited from earlier work
[3] = test system: histamine-induced and antigen-induced bronchoconstriction; conditions: guinea-pig; cited from earlier work
colitis = conditions: rat; cited from earlier work
[4] = test system: antigen-induced bronchoconstriction; conditions: guinea-pig; cited from earlier work
[5] = test system: rheumatoid arthritis patients; conditions: 35 patients, t.i.d., placebo-controlled; cited from earlier work
[6] = test system: antigen-induced lung eosinophilia; conditions: guinea-pig; cited from earlier work
TNF-α mRNA expression = conditions: collagen II treated mice; cited from earlier work
[7] = test system: streptococcal cell wall (SCW)-induced arthritis; conditions: in vivo; cited from earlier work
[8] = test system: antigen-induced bronchospasm; conditions: rat; cited from earlier work
[9] = test system: human peripheral blood mononuclear cells (HPBM); conditions: normal patients and subjects with atopic dermatitis; cited from earlier work
psoriatic lesions = conditions: two double-blind studies versus vehicle; cited from earlier work
[10] = test system: psoriatic epidermal slices; conditions: cited from earlier work
epidermal basal cells = conditions: primary culture; cited from earlier work
[11] = test system: endotoxin-induced acute renal failure; conditions: cited from earlier work
patients with COPD = conditions: cited from earlier work
patients = conditions: orally 5, 10, and 15 mg b.i.d., week 2; cited from earlier work
[12] = test system: seratonin-induced bronchoconstriction; conditions: dog; cited from earlier work
[13] = test system: Patients with severe COPD; conditions: cited from earlier work; for mean pulmonary artery pressure: oral administration, severe COPD
[14] = test system: isolated pulmonary artery rings; conditions: rings from normal rats and rats with hypoxia-induced pulmonary hypertension; cited from earlier work
[15] = test system: lipopolysaccharide-induced bowel erythrocyte extravasation; conditions: pretreatment i.p. 3×, rats; cited from earlier work
[16] = test system: patients suffering from septic shock; conditions: 1 mg/kg/hr, after 24 hours; cited from earlier work

Molecule `O=C(NCc1ccc(C(O)C(F)(F)F)cc1)c1cccnc1Oc1ccc2nonc2c1` (racemic) [Example 5, (±)-2-[Benzo[2,1,3]oxadiazol-5-yloxy]-N-[4-[2,2,2-trifluoro-1-hydroxy-ethyl]-benzyl]-nicotinamide] has a melting point of 164 to 166 °C.

For `CC(O)c1ccc(CNC(=O)c2cccnc2Oc2ccc3nonc3c2)s1` (racemic) [Example 6, (±)-2-[Benzo[2,1,3]oxadiazol-5-yloxy]-N-[5-[1-hydroxy-ethyl]-thiophen-2-ylmethyl]-nicotinamide], the melting point was 81 to 83 °C.

`CC(NC(=O)c1cccnc1Oc1ccc2nonc2c1)c1ccc(C(C)(C)O)cc1F` (racemic) [Example 8, (±)-2-(Benzo[2,1,3]oxadiazol-5-yloxy)-N-{1-[2-fluoro-4-(1-hydroxy-1-methyl-ethyl)-phenyl]-ethyl}-nicotinamide] gave a melting point of 128 to 130 °C.

`CC(NC(=O)c1cccnc1Oc1ccc2nonc2c1)c1ccc(C(C)(C)O)cc1` (racemic) [Example 17, (±)-2-(Benzo[2,1,3]oxadiazol-5-yloxy)-N-{1-[4-(1-hydroxy-1-methyl-ethyl)-phenyl]ethyl}-nicotinamide] showed a melting point of 116 to 117 °C.

For `COc1ccc(-c2nc3cnccc3o2)c2c1OC1(CCCC1)C2` [(0.0.48)], the IC50 (PDE4) is listed as 2.5 nM.

In the case of `O=S1(=O)CCN(c2nc(NC3CC3)nc(C3CC3)n2)C1` [(0.0.56)], the IC50 (PDE4) is listed as 150 nM and the “relaxant activity, guinea-pig trachea model” value (guinea-pig trachea) is listed as “potent relaxant agents”.

In the case of `CC1CC1c1nc(NC2CC2)nc(N2CCOCC2)n1` (stereo not shown) [(0.0.57)], the IC50 (PDE4) is listed as 140 nM and the “relaxant activity, guinea-pig trachea model” value (guinea-pig trachea) is listed as “potent relaxant agents”.

For `O=C(Nc1c(Cl)cncc1Cl)C(=O)c1cn(Cc2ccc(F)cc2)c2ccc(O)cc12` [AWD-12,281], the “activity in a rat model of allergic rhinitis” value (allergic rhinitis) is listed as “active”.

In the case of `Nc1nc2c([nH]1)c(=O)n(CC1CC1)c(=O)n2CC1CC1` [BRL-61,063], the “adverse events of nausea and vomiting” value [1] is given as “adverse events of nausea and vomiting”.

In the case of `COc1ccc(C2CNC(=O)NC2)cc1O[C@H]1C[C@@H]2CC[C@H]1C2` [CP-80,633], the emesis [1] is given as “elicit emesis”, the inflammatory parameters (atopic dermatitis; bilaterally over eight days, twenty patients) is given as “effectively inhibit all of the inflammatory parameters tested” and the adverse effects (atopic dermatitis; eight days) is given as “no adverse effects”. For the same molecule, the “affinity at the Sr” value [2] was “high affinity at the Sr”.

In the case of `CC(C)(O)c1ccc(CNC(=O)c2cccnc2Oc2ccc3nonc3c2)c(F)c1` [Example 2, 2-[Benzo[2,1,3]oxadiazol-5-yloxy]-N-[2-fluoro-4-[1-hydroxy-1-methyl-ethyl]-benzyl]-nicotinamide], the melting point is reported as 160 to 161 °C.

`CC(=O)c1ccc(CNC(=O)c2cccnc2Oc2ccc3nonc3c2)cc1` [Example 7, N-[4-Acetyl-benzyl]-2-[benzo[2,1,3]oxadiazol-5-yloxy]-nicotinamide] gave a melting point of 154 to 156 °C.

Molecule `CC(C)(O)c1ccc(CNC(=O)c2cccnc2Oc2ccc3nonc3c2)c(Cl)c1` [Example 9, 2-(Benzo[2,1,3]oxadiazol-5-yloxy)-N-[2-chloro-4-(1-hydroxy-1-methyl-ethyl)-benzyl]-nicotinamide] has a melting point of 171 to 173 °C.

For `CCCn1c(=O)c2c(C)nc(CC)n2c2nc(OC)ccc21` [Example D-22888], the “anti-allergic effect and rhinorrhea” value (rhinorrhea) is given as “exhibit a strong anti-allergic affect and to inhibit rhinorrhea”.

In the case of `O=c1c2[nH]cnc2c2cccnc2n1-c1ccccc1` [KF17625], the “inhibition of histamine- and antigen-induced bronchoconstriction, PAF- and antigen-induced eosinophilia, AHR, bronchospasm, anaphylactic bronchoconstriction” value [3] is listed as “activity”.

For `O=c1c2c(ncn2Cc2cccnc2)c2cccnc2n1-c1ccccc1` [KF19514], the “inhibition of histamine- and antigen-induced bronchoconstriction, PAF- and antigen-induced eosinophilia, AHR, bronchospasm, anaphylactic bronchoconstriction” value [3] is given as “activity”.

For `CCCn1c(=O)c2[nH]cnc2n(-c2ccc(Cl)cc2)c1=O` [LAS-31025], the “effects in dextran sulfate induced colitis model” value (colitis) is given as “beneficial effects comparable to prednisolone”, the “effects in models of colitis” value (colitis) is given as “beneficial effects” and the “inhibition of antigen-induced bronchoconstriction” value [4] is given as “active”.

In the case of `COc1ccc(C(=O)Nc2c(Cl)cncc2Cl)cc1OC1CCCC1` [RP-73,401], the clinical improvement [5] is given as “positive trend towards clinical improvement”, the “inhibition of antigen-induced lung, BAL and airway eosinophilia, EPO, PAF- and ozone-induced AHR, IL-5 induced pleural eosinophila” value [6] is given as “active” and the “TNF-α mRNA expression at the pannus/cartilage interface of paw joints” value (TNF-α mRNA expression) is given as “decrease TNF-α mRNA expression”. The emesis [1] was “elicit emesis”, the “disease: joint destruction, synovitis, and fibrosis” value [7] was “significant amelioration of disease” and the “affinity at the Sr” value [2] was “high affinity at the Sr”.

In the case of `COc1ccc(CNc2c(C)noc2C)cc1OC1CCCC1` [RPR-132294], the “inhibition of antigen-induced bronchospasm” value [8] is listed as “activity in the inhibition of antigen-induced bronchospasm”.

For `O=c1c2cccnc2n(-c2cccc([N+](=O)[O-])c2)c(=O)n1Cc1ccncc1` [RS-23,544], the emesis [1] is listed as “elicit emesis” and the “affinity at the Sr” value [2] is listed as “high affinity at the Sr”.

In the case of `COc1ccc(CC2CNC(=O)N2)cc1OC1CCCC1` (stereo not shown) [Ro 20-1724], the “inhibition of the proliferation of HPBM” value [9] is given as “concentration-related inhibition”, the “psoriatic lesions and adverse effects” value (psoriatic lesions) is given as “improve psoriatic lesions without adverse systemic or cutaneous effects” and the “increase in cAMP concentration” value ([10]; keratomed psoriatic epidermis) is given as 1395%. The “cAMP concentrations over controls” value ([10]; psoriatic epidermal slices and keratomed psoriatic epidermal slices) was “very marked elevation of cAMP concentrations over controls”, the cAMP concentrations (epidermal basal cells) was “three-fold increase” and the survival rates ([11]; endotoxin-treated rats) was “improve survival rates”. For the same molecule, the “renal vascular resistance, renal blood flow and glomerular filtration rate” value ([11]; post-treatment at 10 μg/kg/min) was “markedly attenuates endotoxin-induced increases in renal vascular resistance and decreases in renal blood flow and glomerular filtration rate” and the “urinary cAMP excretion” value ([11]; post-treatment at 10 μg/kg/min) was “significantly increases urinary cAMP excretion”.

In the case of `COc1ccc([C@]2(C#N)CC[C@@H](C(=O)O)CC2)cc1OC1CCCC1` [SB-207,499], the “improvement in trough FEV1” value (patients with COPD; 15 mg b.i.d., week 6) is listed as 11%, the “maximum mean difference in trough FEV1 compared with placebo” value (patients with COPD; 15 mg b.i.d., week 6) is listed as 160 mL and the “FEV1 and forced vital capacity (FVC)” value (patients with COPD; 15 mg twice a day for six weeks) is listed as “increrases in FEV1 and forced vital capacity (FVC)”. For the same molecule, the FEV1 (patients with COPD; four week trial) was “evidence of improved FEV1”, the “affinity at the Sr” value [2] was “comparatively low affinity at the Sr” and the “trough FEV1 from placebo” value (patients) was “significant increases”.

For `COc1ccc(/C(C)=N/OC(N)=O)cc1OC1CCCC1` [WAY-PDA-641], the “inhibition of seratonin-induced bronchoconstriction” value [12] is given as “active”.

In the case of `CSc1ccc(C(=O)c2[nH]c(=O)[nH]c2C)cc1` [enoximone], the “mean pulmonary artery pressure” value [13] is listed as “decreases in mean pulmonary artery pressure” and the airway resistance ([13]; patients hospitalized with decompensated COPD) is listed as “reduce airway resistance”.

In the case of `Cc1[nH]c(=O)c(C#N)cc1-c1ccncc1` [milrinone], the “relaxant activities of isoproterenol and forskolin” value [14] is listed as “same effect has been observed” and the “mean pulmonary artery pressure” value [13] is listed as “decreases in mean pulmonary artery pressure”.

For `CC(=O)CCCCn1c(=O)c2c(ncn2C)n(C)c1=O` [pentoxifylline], the “lipopolysaccharide-induced bowel erythrocyte extravasation” value [15] is given as “reduces lipopolysaccharide-induced bowel erythrocyte extravasation”, the IL-6 levels [16] is given as “significantly increased” and the TNF-α levels [16] is given as “significantly lowered”.
